Where only a bound is given, the exact number is not on record here.

In one assay the target is Aurora kinase B (Homo sapiens, UniProt Q96GD4). The assay can be described thus: Inhibition of Aurora B in human HCT116 cells assessed as inhibition of histone H3 phosphorylation by immunofluorescence assay. The class given is cell-based, HCT-116.
In assay [1] the target is Casein kinase I isoform delta (Homo sapiens, UniProt P48730). In words: Inhibition of CSNK1D.
For assay [2], the target named is T1, Serine/threonine-protein kinase Nek2 (Homo sapiens, UniProt P51955).
T1 sequence (P51955 whole entry): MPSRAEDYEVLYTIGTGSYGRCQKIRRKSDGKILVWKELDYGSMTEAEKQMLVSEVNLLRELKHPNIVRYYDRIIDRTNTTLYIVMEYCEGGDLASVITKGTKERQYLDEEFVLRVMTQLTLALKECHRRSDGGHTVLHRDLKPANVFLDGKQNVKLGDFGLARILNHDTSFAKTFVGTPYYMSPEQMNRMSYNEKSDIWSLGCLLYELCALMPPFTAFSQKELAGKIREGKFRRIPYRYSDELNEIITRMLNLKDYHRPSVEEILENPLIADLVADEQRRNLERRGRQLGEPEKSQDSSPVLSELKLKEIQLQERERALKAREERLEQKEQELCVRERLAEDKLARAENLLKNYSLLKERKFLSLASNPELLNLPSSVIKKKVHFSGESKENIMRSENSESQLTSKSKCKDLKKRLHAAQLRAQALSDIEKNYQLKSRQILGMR
The assay can be described thus: Inhibition of NEK2.

The target in assay [3] is Insulin-like growth factor 1 receptor (Homo sapiens, UniProt P08069). The assay can be described thus: Inhibition of IGF1R.
Sequence of Insulin-like growth factor 1 receptor (P08069 31-736 limits assumed): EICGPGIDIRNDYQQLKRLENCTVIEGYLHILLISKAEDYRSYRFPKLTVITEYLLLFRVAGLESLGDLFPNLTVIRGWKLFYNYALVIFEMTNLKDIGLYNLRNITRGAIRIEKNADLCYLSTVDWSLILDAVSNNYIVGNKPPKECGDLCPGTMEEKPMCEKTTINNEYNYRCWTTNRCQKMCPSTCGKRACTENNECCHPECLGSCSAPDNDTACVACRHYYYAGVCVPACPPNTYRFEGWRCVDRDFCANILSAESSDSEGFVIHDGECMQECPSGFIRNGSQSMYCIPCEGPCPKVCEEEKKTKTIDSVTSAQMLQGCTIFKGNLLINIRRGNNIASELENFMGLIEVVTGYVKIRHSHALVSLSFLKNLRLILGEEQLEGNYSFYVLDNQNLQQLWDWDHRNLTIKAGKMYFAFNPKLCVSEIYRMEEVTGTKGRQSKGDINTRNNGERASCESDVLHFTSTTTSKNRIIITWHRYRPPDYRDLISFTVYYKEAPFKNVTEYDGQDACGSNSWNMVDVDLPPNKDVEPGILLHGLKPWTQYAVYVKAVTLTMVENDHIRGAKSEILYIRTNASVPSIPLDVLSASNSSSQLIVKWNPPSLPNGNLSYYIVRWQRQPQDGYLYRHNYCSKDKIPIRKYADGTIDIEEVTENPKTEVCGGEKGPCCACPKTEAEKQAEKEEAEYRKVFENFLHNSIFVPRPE
Sequence of Insulin-like growth factor 1 receptor (P08069 741-1367 limits assumed): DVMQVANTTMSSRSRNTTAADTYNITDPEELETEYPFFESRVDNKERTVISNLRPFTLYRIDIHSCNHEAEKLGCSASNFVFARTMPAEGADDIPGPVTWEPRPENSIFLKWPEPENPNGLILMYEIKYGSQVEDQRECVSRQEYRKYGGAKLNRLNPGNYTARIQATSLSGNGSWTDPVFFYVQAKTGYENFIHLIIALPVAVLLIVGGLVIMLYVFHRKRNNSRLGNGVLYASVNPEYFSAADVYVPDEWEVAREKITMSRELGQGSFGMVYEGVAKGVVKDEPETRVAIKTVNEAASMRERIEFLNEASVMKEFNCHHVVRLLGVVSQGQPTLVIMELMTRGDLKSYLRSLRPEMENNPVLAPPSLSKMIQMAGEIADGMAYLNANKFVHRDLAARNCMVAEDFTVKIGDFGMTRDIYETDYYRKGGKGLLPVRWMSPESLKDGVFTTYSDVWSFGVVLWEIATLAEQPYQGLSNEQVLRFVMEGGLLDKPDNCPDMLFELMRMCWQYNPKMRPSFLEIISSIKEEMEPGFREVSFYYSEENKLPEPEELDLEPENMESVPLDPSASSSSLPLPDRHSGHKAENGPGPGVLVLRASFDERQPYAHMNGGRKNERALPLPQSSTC
Assay [4] deals with Protein kinase C alpha type (Homo sapiens, UniProt P17252). In words: Inhibition of PKCA.
Assay [5] deals with RAC-alpha serine/threonine-protein kinase (Homo sapiens, UniProt P31749). The assay can be described thus: Inhibition of AKT1.
Sequence of RAC-alpha serine/threonine-protein kinase (P31749 whole entry): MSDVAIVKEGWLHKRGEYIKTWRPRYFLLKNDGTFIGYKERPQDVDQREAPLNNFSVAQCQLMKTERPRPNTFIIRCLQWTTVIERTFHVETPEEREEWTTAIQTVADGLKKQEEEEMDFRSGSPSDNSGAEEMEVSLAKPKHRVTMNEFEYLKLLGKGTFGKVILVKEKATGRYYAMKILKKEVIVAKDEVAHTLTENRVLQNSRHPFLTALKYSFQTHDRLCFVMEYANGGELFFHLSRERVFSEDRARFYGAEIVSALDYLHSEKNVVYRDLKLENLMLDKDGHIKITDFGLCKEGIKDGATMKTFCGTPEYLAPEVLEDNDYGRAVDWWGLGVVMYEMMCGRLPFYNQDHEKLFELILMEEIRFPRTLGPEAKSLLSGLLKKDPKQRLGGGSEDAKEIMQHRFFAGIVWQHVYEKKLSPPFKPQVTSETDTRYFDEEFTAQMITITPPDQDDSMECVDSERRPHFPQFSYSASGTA
For a further assay, the target named is T2, Ephrin type-B receptor 4 (Homo sapiens, UniProt P54760).
T2 sequence (P54760 whole entry): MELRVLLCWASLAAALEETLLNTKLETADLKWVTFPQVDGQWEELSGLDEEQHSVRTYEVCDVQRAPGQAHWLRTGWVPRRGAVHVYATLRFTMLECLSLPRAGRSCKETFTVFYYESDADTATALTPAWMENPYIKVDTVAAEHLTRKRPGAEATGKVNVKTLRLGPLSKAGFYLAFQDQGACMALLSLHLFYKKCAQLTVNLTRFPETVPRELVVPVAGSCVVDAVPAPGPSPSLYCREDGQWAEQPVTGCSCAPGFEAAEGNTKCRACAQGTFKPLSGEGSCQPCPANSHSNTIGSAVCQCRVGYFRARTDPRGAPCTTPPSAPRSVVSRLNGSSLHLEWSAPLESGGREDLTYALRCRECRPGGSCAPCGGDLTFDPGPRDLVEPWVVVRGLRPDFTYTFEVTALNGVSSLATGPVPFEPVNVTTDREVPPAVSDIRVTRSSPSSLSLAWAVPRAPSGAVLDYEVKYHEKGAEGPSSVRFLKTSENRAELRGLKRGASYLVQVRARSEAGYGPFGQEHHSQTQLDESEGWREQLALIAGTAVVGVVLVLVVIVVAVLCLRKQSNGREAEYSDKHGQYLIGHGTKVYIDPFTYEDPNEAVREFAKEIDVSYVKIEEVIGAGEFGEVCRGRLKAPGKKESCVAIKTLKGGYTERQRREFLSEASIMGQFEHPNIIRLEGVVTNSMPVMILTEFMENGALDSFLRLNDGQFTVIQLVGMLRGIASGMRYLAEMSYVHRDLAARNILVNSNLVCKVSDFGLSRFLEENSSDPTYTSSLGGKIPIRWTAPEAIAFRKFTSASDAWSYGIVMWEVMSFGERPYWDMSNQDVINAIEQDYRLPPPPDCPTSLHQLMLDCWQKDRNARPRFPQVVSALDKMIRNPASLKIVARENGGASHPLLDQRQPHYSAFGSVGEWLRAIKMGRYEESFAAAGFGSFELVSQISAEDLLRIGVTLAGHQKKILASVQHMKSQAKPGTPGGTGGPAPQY
The assay can be described thus: Inhibition of EPHB4.

The target in assay [6] is T3, Testis-specific serine/threonine-protein kinase 2 (Homo sapiens, UniProt Q96PF2).
T3 sequence (Q96PF2 whole entry): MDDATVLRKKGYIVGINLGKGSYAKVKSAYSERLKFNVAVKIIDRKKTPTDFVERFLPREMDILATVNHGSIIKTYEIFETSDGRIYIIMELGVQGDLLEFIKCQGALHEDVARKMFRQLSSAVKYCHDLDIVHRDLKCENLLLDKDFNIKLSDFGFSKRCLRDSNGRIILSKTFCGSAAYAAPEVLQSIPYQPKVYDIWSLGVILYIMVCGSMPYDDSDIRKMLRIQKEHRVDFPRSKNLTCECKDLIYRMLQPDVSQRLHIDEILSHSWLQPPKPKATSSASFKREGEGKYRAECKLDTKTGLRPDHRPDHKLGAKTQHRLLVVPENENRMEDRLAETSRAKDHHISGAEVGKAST
The assay can be described thus: Inhibition of TSSK2.

The target in another assay is T4, Aurora kinase A (Homo sapiens, UniProt O14965).
T4 sequence (O14965 whole entry): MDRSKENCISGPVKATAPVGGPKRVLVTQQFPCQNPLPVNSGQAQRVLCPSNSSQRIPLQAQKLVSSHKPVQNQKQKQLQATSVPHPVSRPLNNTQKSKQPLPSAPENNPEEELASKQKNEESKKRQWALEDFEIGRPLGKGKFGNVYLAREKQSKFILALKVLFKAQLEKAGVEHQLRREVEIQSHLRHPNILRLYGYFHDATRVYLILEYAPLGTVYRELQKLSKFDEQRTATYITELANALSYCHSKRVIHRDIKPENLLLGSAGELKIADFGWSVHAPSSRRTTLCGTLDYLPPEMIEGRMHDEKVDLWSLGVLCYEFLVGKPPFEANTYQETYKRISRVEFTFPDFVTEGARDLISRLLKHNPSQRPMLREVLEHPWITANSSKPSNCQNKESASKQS
The assay can be described thus: Inhibition of Aurora A.

Assay [7] addresses Serine/threonine-protein kinase PLK3 (Homo sapiens, UniProt Q9H4B4). The assay can be described thus: Inhibition of PLK3.
For assay [8], the target named is Hepatocyte growth factor receptor (Homo sapiens, UniProt P08581). The assay can be described thus: Inhibition of MET.
Sequence of Hepatocyte growth factor receptor (P08581 whole entry): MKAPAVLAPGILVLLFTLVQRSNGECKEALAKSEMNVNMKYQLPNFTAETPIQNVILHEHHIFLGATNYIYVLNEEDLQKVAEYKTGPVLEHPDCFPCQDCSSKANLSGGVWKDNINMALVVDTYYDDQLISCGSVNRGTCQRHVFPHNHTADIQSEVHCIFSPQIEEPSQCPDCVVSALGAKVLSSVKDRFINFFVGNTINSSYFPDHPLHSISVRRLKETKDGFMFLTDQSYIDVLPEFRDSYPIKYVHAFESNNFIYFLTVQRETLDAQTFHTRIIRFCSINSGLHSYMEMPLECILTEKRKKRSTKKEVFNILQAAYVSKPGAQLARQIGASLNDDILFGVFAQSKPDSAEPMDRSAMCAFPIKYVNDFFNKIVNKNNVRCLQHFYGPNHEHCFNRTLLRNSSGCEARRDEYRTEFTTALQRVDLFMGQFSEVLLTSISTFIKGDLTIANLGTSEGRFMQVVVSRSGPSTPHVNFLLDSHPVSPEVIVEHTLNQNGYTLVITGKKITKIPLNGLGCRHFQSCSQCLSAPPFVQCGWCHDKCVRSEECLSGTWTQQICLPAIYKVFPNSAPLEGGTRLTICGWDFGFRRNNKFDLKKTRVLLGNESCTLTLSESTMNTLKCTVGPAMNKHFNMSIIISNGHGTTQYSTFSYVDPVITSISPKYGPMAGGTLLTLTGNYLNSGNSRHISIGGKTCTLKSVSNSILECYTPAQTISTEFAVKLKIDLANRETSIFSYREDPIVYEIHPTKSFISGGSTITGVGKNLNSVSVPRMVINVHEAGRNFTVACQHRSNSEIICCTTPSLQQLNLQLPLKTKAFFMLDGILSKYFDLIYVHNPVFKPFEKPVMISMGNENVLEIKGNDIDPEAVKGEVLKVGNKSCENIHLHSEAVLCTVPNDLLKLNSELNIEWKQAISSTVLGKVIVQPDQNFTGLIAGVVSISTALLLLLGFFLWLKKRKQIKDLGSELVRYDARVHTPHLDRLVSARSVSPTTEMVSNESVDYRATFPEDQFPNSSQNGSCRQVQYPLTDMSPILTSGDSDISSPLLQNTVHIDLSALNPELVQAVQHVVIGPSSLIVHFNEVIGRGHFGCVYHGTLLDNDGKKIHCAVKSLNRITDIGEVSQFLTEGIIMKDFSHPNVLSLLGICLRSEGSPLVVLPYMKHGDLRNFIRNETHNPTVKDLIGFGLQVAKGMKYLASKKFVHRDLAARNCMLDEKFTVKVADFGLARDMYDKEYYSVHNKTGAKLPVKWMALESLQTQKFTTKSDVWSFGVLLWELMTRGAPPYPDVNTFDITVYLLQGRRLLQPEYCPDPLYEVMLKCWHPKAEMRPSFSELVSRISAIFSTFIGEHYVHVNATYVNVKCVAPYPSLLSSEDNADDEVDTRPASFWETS
Assay [9] deals with Mitogen-activated protein kinase 1 (Homo sapiens, UniProt P28482). The assay can be described thus: Inhibition of ERK2.
Sequence of Mitogen-activated protein kinase 1 (P28482 whole entry): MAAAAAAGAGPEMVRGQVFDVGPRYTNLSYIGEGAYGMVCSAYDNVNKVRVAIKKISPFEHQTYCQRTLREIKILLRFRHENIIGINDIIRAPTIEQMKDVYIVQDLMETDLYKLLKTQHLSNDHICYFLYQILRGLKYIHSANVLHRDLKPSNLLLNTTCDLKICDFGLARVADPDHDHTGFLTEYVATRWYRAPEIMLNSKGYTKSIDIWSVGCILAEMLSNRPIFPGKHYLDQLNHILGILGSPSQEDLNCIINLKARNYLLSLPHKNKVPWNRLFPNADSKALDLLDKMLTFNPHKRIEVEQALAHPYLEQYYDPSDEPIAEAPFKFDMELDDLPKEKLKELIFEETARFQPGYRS
The target in assay [10] is Cyclin-dependent kinase 2 (Homo sapiens, UniProt P24941). The assay can be described thus: Inhibition of CDK2.

Sequence of Aurora kinase B (Q96GD4 whole entry, canonical isoform): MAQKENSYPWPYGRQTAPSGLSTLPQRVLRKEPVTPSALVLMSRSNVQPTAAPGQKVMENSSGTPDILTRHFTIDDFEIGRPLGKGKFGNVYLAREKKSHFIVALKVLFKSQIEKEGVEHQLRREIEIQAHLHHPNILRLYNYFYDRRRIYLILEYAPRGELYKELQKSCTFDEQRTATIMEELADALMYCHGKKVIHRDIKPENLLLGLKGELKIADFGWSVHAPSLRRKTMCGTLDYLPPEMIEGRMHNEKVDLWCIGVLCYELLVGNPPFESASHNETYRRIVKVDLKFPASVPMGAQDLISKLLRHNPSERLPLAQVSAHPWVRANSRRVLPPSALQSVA
Sequence of Serine/threonine-protein kinase PLK3 (Q9H4B4 whole entry): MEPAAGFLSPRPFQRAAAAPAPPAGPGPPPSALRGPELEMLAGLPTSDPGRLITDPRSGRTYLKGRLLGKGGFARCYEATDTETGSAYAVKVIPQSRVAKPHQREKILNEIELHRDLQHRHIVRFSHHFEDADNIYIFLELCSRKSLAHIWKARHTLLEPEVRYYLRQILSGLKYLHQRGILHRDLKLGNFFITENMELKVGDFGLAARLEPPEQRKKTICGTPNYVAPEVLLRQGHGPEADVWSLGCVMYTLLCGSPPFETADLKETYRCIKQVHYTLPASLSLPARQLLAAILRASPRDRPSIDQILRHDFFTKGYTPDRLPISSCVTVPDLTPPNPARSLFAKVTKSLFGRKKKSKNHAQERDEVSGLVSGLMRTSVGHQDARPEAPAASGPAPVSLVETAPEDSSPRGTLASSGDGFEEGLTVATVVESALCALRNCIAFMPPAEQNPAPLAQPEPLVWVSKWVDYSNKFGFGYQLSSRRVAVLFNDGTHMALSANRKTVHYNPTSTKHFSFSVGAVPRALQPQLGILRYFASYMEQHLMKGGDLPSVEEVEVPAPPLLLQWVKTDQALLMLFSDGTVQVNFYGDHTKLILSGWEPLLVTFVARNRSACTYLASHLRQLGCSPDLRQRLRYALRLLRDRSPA
Sequence of Casein kinase I isoform delta (P48730 whole entry, canonical isoform): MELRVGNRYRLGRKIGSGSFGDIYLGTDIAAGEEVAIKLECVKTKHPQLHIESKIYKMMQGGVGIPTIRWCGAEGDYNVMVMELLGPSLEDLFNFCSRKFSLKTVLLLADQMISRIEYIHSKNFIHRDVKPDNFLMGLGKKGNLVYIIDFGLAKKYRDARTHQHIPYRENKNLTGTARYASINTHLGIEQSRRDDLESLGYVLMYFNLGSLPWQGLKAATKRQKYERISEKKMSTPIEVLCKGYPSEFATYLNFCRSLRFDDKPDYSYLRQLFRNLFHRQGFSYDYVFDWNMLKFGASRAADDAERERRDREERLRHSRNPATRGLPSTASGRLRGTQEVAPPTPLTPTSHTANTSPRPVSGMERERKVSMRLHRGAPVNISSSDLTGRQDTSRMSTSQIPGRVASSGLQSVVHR

The term IC50 denotes the concentration needed to halve the response being measured. On to `Cl.[2H]C([2H])(c1cc(Nc2nc(C)cn3c(-c4cn[nH]c4)cnc23)sn1)N1CCC(F)(F)C1`, for which the IC50 on Aurora kinase B is 63 nM; in [1] it was more than 100 nM; in assay [2], more than 100 nM; in assay [3] it was more than 100 nM; in assay [4], more than 100 nM; in assay [5], more than 100 nM. Moreover, the half-inhibitory concentration (IC50) at Ephrin type-B receptor 4 is 700 nM; in assay [6], more than 100 nM; against Aurora kinase A, not above 4 nM; in [7], more than 100 nM; in assay [8] it was more than 100 nM; in [9], more than 100 nM. Moreover, the IC50 in assay [10] was more than 100 nM.
With `Cc1cn2c(-c3cn[nH]c3)cnc2c(Nc2cc(CN3CCC(F)(F)C3)ns2)n1.Cl`, the 50% inhibitory concentration (IC50) at Aurora kinase B was 91 nM; in assay [1], more than 100 nM; in assay [2] it was more than 100 nM; in assay [3], more than 100 nM; in [4] it was more than 100 nM; in assay [5], more than 100 nM. Besides, the half-inhibitory concentration (IC50) is 770 nM against Ephrin type-B receptor 4; more than 100 nM in assay [6]; not above 4 nM on Aurora kinase A; more than 100 nM in assay [7]; more than 100 nM in [8]; more than 100 nM in [9]. This compound also had an IC50 in assay [10] of more than 100 nM.
Take `CCN(Cc1cc(Nc2nc(C)cn3c(-c4cn[nH]c4)cnc23)sn1)C(C)(C)CO`: the IC50 was 25 nM at Aurora kinase B; more than 100 nM in assay [1]; more than 100 nM in [2]; more than 100 nM in assay [3]; more than 100 nM in assay [4]; more than 100 nM in [5]. For the same compound, the IC50 on Ephrin type-B receptor 4 is 100 nM; in assay [6], more than 100 nM; on Aurora kinase A, not above 4 nM; in assay [7], more than 100 nM; in [8], more than 100 nM; in [9], more than 100 nM. The compound further returned an IC50 in assay [10] of more than 100 nM.

(Values after ChEMBL document CHEMBL1649074, “Aurora kinase inhibitors based on the imidazo[1,2-a]pyrazine core: fluorine and deuterium incorporation improve oral absorption and exposure” (J Med Chem, 2011).)
